This note sets out measurements from US9345691B2, “Beta-lactam compounds for enhancing T cell-mediated immune responses” (STEM CELL MEDICINE LTD., priority 2011, dated 2016).

In one assay the test system is human CD3 T cells. Kind of assay: Pen 9 western blot of antibiotic-treated human T cells. It counts as cell-based. To be noted: human T cells activated by mitogen in presence of the antibiotic. In general terms: Immunoblotting shows a protein as a band on a membrane.
The subject of the next assay is NOD mice. Briefly: Autoimmune diabetes in NOD mice. The assay is classed as in vivo, mouse. As to the method: NOD mice spontaneously develop diabetes mellitus similar to type I diabetes in humans. […] The mice were followed for the development of diabetes, marked by blood sugar above 300 mg/dl on 2 measurements.
The test system of a further assay is CD4+ human T cells. Kind of assay: Real-time PCR verification of six genes. To be noted: same RNA as gene array; cefuroxime 50 μg/ml. It counts as cell-based. As to the method:
To verify the results of the gene array, we synthesized real-time PCR primers (designed with the LightCycler probe design software (Roche)). Real-time PCR of 6 selected genes was performed using a LightCycler (Roche, Basel, Switzerland). RNA was reverse transcribed to cDNA from 1 μg of total RNA, which was then subjected to quantitative RT-PCR performed essentially according to the manufacturer's instructions. Specific primer pairs were used to amplify specific genes in the presence of 3 mM MgCl2. PCR was performed in triplicate in a total volume of 20 μl of LightCycler HotStart DNA SYBR Green I mix (Roche) containing primer and 5 μl of cDNA. […] Denaturation was performed for 15 s at 95° C., annealing was performed in 60° C., and the extension was performed at 72° C. for 20 s, with fluorescence detection at 72° C. after each cycle. After the final cycle, melting point analyses of all samples were performed within the range of 62-95° C. with continuous fluorescence detection. […]
The Human Autoimmune and Inflammatory Response Gene Array (SuperArray Bioscience corporation, Frederick, Md., USA) was used for analysis of gene expression by the T cells. […] To verify the results detected by the gene array study, a panel of six genes was designed and tested by real-time PCR: CCR4, ACVR2, JAK1, STAT4, TLR2 and NFKBIE. […]
(In general: Real-time PCR tracks product formation cycle by cycle.)

Assay [1] has as its system experimental autoimmune encephalomyelitis (EAE) in rats. Briefly: Actively induced EAE. It counts as in vivo, rat. As to conditions: oral in drinking water from day 7 postinduction, daily dose 50 mg/kg, versus two control groups.
Assay [2] concerns Adjuvant Arthritis (AA) in rats. Briefly: Adjuvant arthritis (AA). It counts as in vivo, rat. As to conditions: IP 5 mg (25 mg/kg) once every 2 or 3 days from day 12, versus non-injected control. As to the method:
Heat-killed Mycobacterium tuberculosis (Mt) strain H37Ra (Difco) was finely ground using a pestle and mortar, and was suspended to a final concentration of 10 mg/ml in IFA. Test rats were injected at the base of the tail with a total of 100 μl of the Mt suspension. The day of AA induction was designated as day 0. Disease severity was assessed by direct observation of all four limbs in each animal. A relative score between 0 and 4 was assigned to each limb based on the degree of joint inflammation, redness, and deformity; thus, the maximum possible score for an individual animal was 16. The results are presented as the mean±SE of total score.
To test the effects of antibiotics in vivo, active experimental autoimmune encephalomyelitis (EAE) was induced in rats as described above, and the injected rats (4 per group) were treated with oral cefuroxime axetil in the drinking water from day 7 postinduction (“Oral T Cefurox.”). One 500 mg tablet was dissolved in 500 ml of drinking water. The daily dose was 50 mg/kg, in the range of therapeutic pediatric human doses. As a control, the intravenous cefuroxime sodium preparation, which is not absorbed into the circulation, was administered orally (“Oral inj. Cefurox.”). A second control group was given water without antibiotics (“Control”). […]

Entries after “also recorded” stand apart in the source; their conditions may differ.

Turning to `CC1(C)S[C@@H]2[C@H](NC(=O)[C@H](N)c3ccccc3)C(=O)N2[C@H]1C(=O)O` [ampicillin], the “reactivity of Pen 9 antibody with lysates of treated T cells” value with human CD3 T cells is given as “did not bind”. Further, the “effect on type I diabetes” value with NOD mice (NOD mice) is “Inhibition of type I diabetes in NOD mice”. The molecule further gave an incidence of diabetes in the assay with NOD mice (NOD mice at 5.7 months, SC weekly, ampicillin 1300 μg, ceftriaxone 675 μg per mouse) of 30%.
Take `CO/N=C(\C(=O)N[C@@H]1C(=O)N2C(C(=O)O)=C(COC(N)=O)CS[C@H]12)c1ccco1` [cefuroxime]: the “expression of CCR4, ACVR2, JAK1, STAT4, TLR2 and NFKBIE by real-time PCR” value with CD4+ human T cells is recorded as “suppressed”. Moreover, the “severity of actively induced EAE” value in assay [1] is reported as “increases the severity of actively induced EAE”. Moreover, the arthritis scores result in assay [2] was “significantly more severe arthritis scores; also recorded: Exacerbation of adjuvant-induced arthritis”.
